Earlier results, collected in patent publication US20060122162A1, “Methods of using temozolomide formulation intrathecally in the treatment of cancers” (Schering Corporation, priority 2004, published 2006).

## Cn1nnc2c(C(N)=O)ncn2c1=O [Temozolomide, 3,4-dihydro-3-methyl-4-oxoimidazo-[5,1-d]-1,2,3,4-tetrazin-8-carboximide]
Advanced melanoma; patients having advanced melanoma, Newlands et al., Br J Cancer 1992
  patients in whom clinical responses were achieved: 17%
Advanced melanoma; patients with advanced melanoma, Bleehan et al., Journal of Clinical Oncology 1995
  patients in whom a clinical response was achieved: 21%
other
  solubility in water: water-insoluble
